This note sets out measurements from patent US10112926B2 (priority 2014, dated 2018).

One may read the IC50 as the concentration that gives 50% inhibition.

The target of this assay is Vps34 (Homo sapiens (Human), UniProt Q8NEB9). Particulars: read-out: Assay C VPS34 IC50.

Counter-ions that a name gives are not always drawn.

Sequence of Vps34 (Q8NEB9 whole entry): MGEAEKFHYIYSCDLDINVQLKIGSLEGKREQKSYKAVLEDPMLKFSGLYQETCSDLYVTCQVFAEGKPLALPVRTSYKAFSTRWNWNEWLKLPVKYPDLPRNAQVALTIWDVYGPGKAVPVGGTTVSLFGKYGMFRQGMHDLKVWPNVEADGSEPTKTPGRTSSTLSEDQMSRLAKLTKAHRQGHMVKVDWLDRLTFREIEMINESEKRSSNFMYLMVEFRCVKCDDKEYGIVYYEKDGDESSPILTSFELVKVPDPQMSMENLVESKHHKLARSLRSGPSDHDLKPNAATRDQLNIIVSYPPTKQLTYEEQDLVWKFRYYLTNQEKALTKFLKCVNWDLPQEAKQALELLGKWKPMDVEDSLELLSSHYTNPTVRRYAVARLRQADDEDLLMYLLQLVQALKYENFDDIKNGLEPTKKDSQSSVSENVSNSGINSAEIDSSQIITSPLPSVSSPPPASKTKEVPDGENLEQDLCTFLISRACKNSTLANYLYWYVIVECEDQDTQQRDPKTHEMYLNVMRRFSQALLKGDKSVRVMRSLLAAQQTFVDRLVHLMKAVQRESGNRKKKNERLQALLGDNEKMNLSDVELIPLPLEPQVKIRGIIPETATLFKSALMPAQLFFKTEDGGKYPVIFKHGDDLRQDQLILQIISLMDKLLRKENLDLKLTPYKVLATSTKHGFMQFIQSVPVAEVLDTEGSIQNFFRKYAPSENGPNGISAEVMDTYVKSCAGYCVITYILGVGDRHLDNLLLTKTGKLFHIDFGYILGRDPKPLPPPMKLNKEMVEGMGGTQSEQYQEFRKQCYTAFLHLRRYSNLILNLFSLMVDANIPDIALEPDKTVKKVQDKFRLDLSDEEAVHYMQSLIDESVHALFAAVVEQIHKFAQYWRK

As for `Cc1cc(-c2cc(-c3cc(S(=O)(=O)NCC4(CO)CCCC4)ccc3C)cnc2N)on1` [Example 37.23, 3-(6-Amino-5-(3-methylisoxazol-5-yl)pyridin-3-yl)-N-((1-(hydroxymethyl)cyclopentyl)methyl)-4-methylbenzenesulfonamide], the IC50 is more than 10 µM.

For the molecule `Cc1cc(-c2cc(-c3cc(S(=O)(=O)N4CCOC[C@H]4C)ccc3C)cnc2N)on1` [Example 19.6, (R)-5-(2-methyl-5-((3-methylmorpholino)sulfon-yl)phenyl)-3-(3-methylisoxazol-5-yl)pyridin-2-amine trifluoroacetic acid salt], the IC50 is more than 10 µM. As to `Cc1cc(-c2cc(-c3cc(S(=O)(=O)N4CC[C@@H](O)C4)ccc3C)cnc2N)on1` [Example 37.24, (R)-1-((3-(6-Amino-5-(3-methylisoxazol-5-yl)pyridin-3-yl)-4-methylphenyl)sulfonyl)pyrrolidin-3-ol], the half-inhibitory concentration (IC50) was more than 10 µM.

In the case of `Cc1ccc(S(=O)(=O)NOCC(C)(C)O)cc1-c1cnc(N)c(-c2cnn(CC(F)(F)F)c2)c1` [Example 34, 3-(6-Amino-5-(1-(2,2,2-trifluoroethyl)-1H-pyrazol-4-yl)pyridin-3-yl)-N-(2-hydroxy-2-methylpropoxy)-4-methylbenzenesulfonamide hydrochloride], the IC50 is more than 10 µM. Take `Cc1cc(-c2cc(-c3cc(S(=O)(=O)N[C@@H]4CNC[C@H]4O)ccc3C)cnc2N)on1` [Example 19.4, 3-(6-amino-5-(3-methylisoxazol-5-yl)pyridin-3-yl)-N-(trans-4-hydroxypyrrolidin-3-yl)-4-methylbenzenesulfon-amide acetic acid salt]: the IC50 was more than 10 µM. Under `CCN1CCC[C@@H]1CNS(=O)(=O)c1ccc(C)c(-c2cnc(N)c(-c3cc(C)no3)c2)c1` [Example 37.27, (R)-3-(6-Amino-5-(3-methylisoxazol-5-yl)pyridin-3-yl)-N-((1-ethylpyrrolidin-2-yl)methyl)-4-methylbenzenesulfonamide] stands more than 10 µM. Under `Cc1ncc(-c2cc(-c3cc(S(=O)(=O)NCC4(CO)COC4)ccc3C)cnc2N)o1` [Example 67, 3-(6-Amino-5-(2-methyloxazol-5-yl)pyridin-3-yl)-N-((3-(hydroxymethyl)oxetan-3-yl)methyl)-4-methylbenzenesulfonamide] stands 9.5 µM. As to `Cc1cc(-c2cc(-c3cc(S(=O)(=O)NCC4(O)CC4)ccc3C)cnc2N)on1` [Example 19.10, 3-(6-amino-5-(3-methylisoxazol-5-yl)pyridin-3-yl)-N-((1-hydroxycyclopropyl)methyl)-4-methylbenzenesulfon-amide trifluoroacetic acid salt], the IC50 is more than 10 µM. Under `CCN1CCC[C@H]1CNS(=O)(=O)c1ccc(C)c(-c2cnc(N)c(-c3cc(C)no3)c2)c1` [Example 37.33, (S)-3-(6-Amino-5-(3-methylisoxazol-5-yl)pyridin-3-yl)-N-((1-ethylpyrrolidin-2-yl)methyl)-4-methylbenzenesulfonamide] stands more than 10 µM.

On to `Cc1noc(-c2cc(-c3cc(S(=O)(=O)NC[C@H]4CCOC4)ccc3C)cnc2N)n1` [Example 86, (R)-3-(6-Amino-5-(3-methyl-1,2,4-oxadiazol-5-yl)pyridin-3-yl)-4-methyl-N-((tetrahydrofuran-3-yl)methyl)benzenesulfonamide], for which the IC50 is more than 10 µM. As for `Cc1ccc(S(=O)(=O)NCC(C)(C)O)cc1-c1cnc(N)c(-c2cnco2)c1` [Example 94a, 3-(6-amino-5-(oxazol-5-yl)pyridin-3-yl)-N-(2-hydroxy-2-methylpropyl)-4-methylbenzenesulfonamide], the figure is more than 10 µM; as for `Cc1cc(-c2cc(-c3cc(S(=O)(=O)NCC4(O)CCCCC4)ccc3C)cnc2N)on1` [Example 37.9], more than 10 µM; as for `Cc1ncc(-c2cc(-c3cc(S(=O)(=O)NCC4(CO)COC4)ccc3C)cnc2N)s1` [Example 68, 3-(6-Amino-5-(2-methylthiazol-5-yl)pyridin-3-yl)-N-((3-(hydroxymethyl)oxetan-3-yl)methyl)-4-methylbenzenesulfonamide], 8.4 µM.

For `Cc1cc(-c2cc(-c3cc(S(=O)(=O)NCC4(O)CCCC4)ccc3C)cnc2N)on1` [Example 53, 3-(6-Amino-5-(3-methylisoxazol-5-yl)pyridin-3-yl)-N-((1-hydroxycyclopentyl)methyl)-4-methylbenzenesulfonamide], the IC50 is more than 10 µM. As for `Cc1cc(-c2cc(-c3cc(S(=O)(=O)NC4CCOCC4)ccc3C)cnc2N)on1` [Example 37.8, 3-(6-Amino-5-(3-methylisoxazol-5-yl)pyridin-3-yl)-4-methyl-N-(tetrahydro-2H-pyran-4-yl)benzenesulfonamide], the figure is more than 10 µM; as for `Cc1ncc(-c2cc(-c3cc(S(=O)(=O)NCC(C)(C)O)ccc3C)cnc2N)o1` [Example 6, 3-(6-Amino-5-(2-methyloxazol-5-yl)pyridin-3-yl)-N-(2-hydroxy-2-methylpropyl)-4-methylbenzenesulfonamide], more than 10 µM; as for `Cc1cc(-c2cc(-c3cc(S(=O)(=O)NCCC4(O)CCCCC4)ccc3C)cnc2N)on1` [Example 37.30, 3-(6-Amino-5-(3-methylisoxazol-5-yl)pyridin-3-yl)-N-(2-(1-hydroxycyclohexyl)ethyl)-4-methylbenzenesulfonamide], more than 10 µM. `Cc1cc(-c2cc(-c3cc(S(=O)(=O)N4CCCC(C)(O)CC4)ccc3C)cnc2N)on1` (centres unmarked) [Example 19.21, 1-((3-(6-amino-5-(3-methylisoxazol-5-yl)pyridin-3-yl)-4-methylphenyl)sulfonyl)-4-methylazepan-4-ol trifluoroacetic acid salt]: the 50% inhibitory concentration (IC50) is more than 10 µM. Regarding `Cc1ncc(-c2cc(-c3cc(S(=O)(=O)NCCCO)ccc3C)cnc2N)o1` [Example 104.6, 3-(6-amino-5-(2-methyloxazol-5-yl)pyridin-3-yl)-N-(3-hydroxypropyl)-4-methylbenzenesulfon-amide], the concentration for half-maximal inhibition (IC50) turned out to be 1.9 µM. Under `Cc1cc(-c2cc(-c3cc(S(=O)(=O)NCC4(O)CCOCC4)ccc3C)cnc2N)on1` [Example 54, 3-(6-Amino-5-(3-methylisoxazol-5-yl)pyridin-3-yl)-N-((4-hydroxytetrahydro-2H-pyran-4-yl)methyl)-4-methylbenzenesulfonamide] stands more than 10 µM.

As to `Cc1noc(-c2cc(-c3cc(S(=O)(=O)NCC(C)(C)O)c(Cl)cc3C)cnc2N)n1` [Example 89, 5-(6-Amino-5-(3-methyl-1,2,4-oxadiazol-5-yl)pyridin-3-yl)-2-chloro-N-(2-hydroxy-2-methylpropyl)-4-methylbenzenesulfonamide], the IC50 was more than 10 µM.

`Cc1ncc(-c2cc(-c3cc(S(=O)(=O)NCC4CC(O)C4)ccc3C)cnc2N)o1` (centres unmarked) [Example 104.1, 3-(6-amino-5-(2-methyloxazol-5-yl)pyridin-3-yl)-N-((3-hydroxycyclobutyl)methyl)-4-methylbenzenesulfon-amide]: the half-maximal inhibitory concentration (IC50) is 1.1 µM. Under `Cc1cc(-c2cc(-c3cc(S(=O)(=O)N[C@H]4CC[C@H](N)CC4)ccc3C)cnc2N)on1` [Example 19.3, 3-(6-amino-5-(3-methylisoxazol-5-yl)pyridin-3-yl)-N-(trans-4-aminocyclohexyl)-4-methylbenzenesulfon-amide acetic acid salt] stands more than 10 µM.
